A short description of data set [1]: Thermal activity by microcalorimetry. The settings on record: microcalorimeter at 25° C., scanned from about 30% to about 90% relative humidity. It counts as physicochemical. Here is the method: To confirm that the salbutamol sulphate had been converted to the desired low energy, crystalline form i.e. had been annealed, the thermal activity and the water content of the treated salbutamol sulphate compared to untreated salbutamol sulphate was measured using standard microcalorimetry techniques and moisture sorption techniques respectively. A Hart Scientific Microcalorimeter (model 4400) was operated at 25° C. with a water adsorption unit and scanned from about 30% to about 90% relative humidity over a 11.5 hour period. Thermal equilibration time was 1 to 2 hours.

The nature of data set [2]: Water content by vacuum balance moisture sorption. The format is physicochemical. The settings on record: for water content: typical/normal value stated in description. The protocol:
To confirm that the salbutamol sulphate had been converted to the desired low energy, crystalline form i.e. had been annealed, the thermal activity and the water content of the treated salbutamol sulphate compared to untreated salbutamol sulphate was measured using standard microcalorimetry techniques and moisture sorption techniques respectively.
A VTI Corp vacuum balance moisture sorption apparatus (model MB300G) was operated at 25° C., and scanned from about 20% to about 90% relative humidity, total scan time about 15 hours. Drying was accomplished at 35° C. under vacuum for approximately 1 hour before the equilibrium condition used for the scans of 3 micrograms/6 minutes was achieved. This same equilibrium weight change criterion was used for the sorption measurements.

Where [3] appears, read: listed as Particulate salbutamol sulphate.

Some results are limits rather than exact numbers.

As to salbutamol sulphate [Example 2], in data set [1], the “thermal activity (heat rate)” value was “lack significant thermal activity”.
Same read-out and setting: then salbutamol sulphate [Example 3], with “lack significant thermal activity”; and salbutamol sulphate [Example 4], with “lacks significant thermal activity”.
Turning to “salbutamol sulphate [treated salbutamol sulphate]”, the “thermal activity (heat rate)” value in data set [1] is recorded as “absent”. Further, the water content entry in data set [2] (listed as annealed salbutamol sulphate) is recorded as “less than 0.4 % by weight”.
Regarding “salbutamol sulphate [untreated salbutamol sulphate, reference compound]”, the “thermal activity (heat rate)” value is “exothermic rise in heat rate up to approximately 55% relative humidity followed by a large endothermic response” in data set [1] and “significantly greater thermal activity” in data set [1] (setting [3]). The “moisture content (moisture sorption profile, % weight gain against relative humidity)” value in data set [2] (25° C., scanned from about 20% to about 90% relative humidity) is on record as “significantly larger moisture content”. This substance also yielded a water content in data set [2] (setting [3]) of at least 0.5 % by weight.

(Values after patent publication US6656453B2, “Medicaments” (SmithKline Beecham Corporation, priority 1995, dated 2003).)
